Reference: ChEMBL document CHEMBL5107977, “Inhibition of MARK4 by serotonin as an attractive therapeutic approach to combat Alzheimer's disease and neuroinflammation” (RSC Med Chem, 2022)

How the values were obtained:
[1] = molecular target: T1, MAP/microtubule affinity-regulating kinase 4 (Homo sapiens) (UniProt Q96L34); assay: Binding affinity to MARK4 (unknown origin) assessed as change in entropy by isothermal titration calorimetry
T1 sequence (whole entry): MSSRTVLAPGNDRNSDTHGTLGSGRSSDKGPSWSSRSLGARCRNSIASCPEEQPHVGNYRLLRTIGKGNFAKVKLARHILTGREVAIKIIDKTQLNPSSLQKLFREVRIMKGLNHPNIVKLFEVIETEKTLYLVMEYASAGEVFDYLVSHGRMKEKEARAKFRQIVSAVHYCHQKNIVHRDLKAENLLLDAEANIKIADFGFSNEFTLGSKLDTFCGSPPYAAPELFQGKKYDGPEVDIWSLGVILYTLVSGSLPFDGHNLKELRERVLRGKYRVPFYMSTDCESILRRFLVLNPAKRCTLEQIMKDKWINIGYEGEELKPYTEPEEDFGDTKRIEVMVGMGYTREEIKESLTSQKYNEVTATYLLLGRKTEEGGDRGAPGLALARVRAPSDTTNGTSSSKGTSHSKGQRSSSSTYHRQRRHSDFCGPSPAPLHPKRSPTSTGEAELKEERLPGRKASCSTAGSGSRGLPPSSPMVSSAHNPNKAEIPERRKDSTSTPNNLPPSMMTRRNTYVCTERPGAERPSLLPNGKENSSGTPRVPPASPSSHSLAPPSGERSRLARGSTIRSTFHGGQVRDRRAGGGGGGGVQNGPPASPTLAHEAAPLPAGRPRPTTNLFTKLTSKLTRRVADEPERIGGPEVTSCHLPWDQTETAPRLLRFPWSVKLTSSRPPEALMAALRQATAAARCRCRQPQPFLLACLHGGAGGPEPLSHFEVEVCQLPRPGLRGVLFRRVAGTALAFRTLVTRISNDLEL

[2] = molecular target: T2, MAP/microtubule affinity-regulating kinase 4 (Homo sapiens, UniProt Q96L34); assay: Inhibition of MARK4 (unknown origin) ATPase activity using ATP as substrate incubated for 1.5 hr in presence of MgCl2 by Biomol green reagent based ELISA
T2 sequence (Q96L34 whole entry): T1 sequence (whole entry)

[3] = molecular target: T1, MAP/microtubule affinity-regulating kinase 4 (Homo sapiens); assay: Binding affinity to MARK4 (unknown origin) assessed as change in enthalpy by isothermal titration calorimetry
[4] = molecular target: T1, MAP/microtubule affinity-regulating kinase 4 (Homo sapiens); assay: Binding affinity to MARK4 (unknown origin) assessed as association constant by isothermal titration calorimetry
[5] = molecular target: T1, MAP/microtubule affinity-regulating kinase 4 (Homo sapiens); assay: Binding affinity to MARK4 (unknown origin) assessed as binding constant by fluorescence binding assay based spectroscopy
[6] = molecular target: T1, MAP/microtubule affinity-regulating kinase 4 (Homo sapiens); assay: Binding affinity to MARK4 (unknown origin) assessed as Gibbs free energy change by MM-GBSA method

NCCc1c[nH]c2ccc(O)cc12 [SEROTONIN]
deltaS [1]: -286 cal/mol/deg | IC50 [2]: 2.99 µM | deltaH [3]: -88.2 kcal/mol | Ka [4]: 148 10^4/M | K [5]: 0.3 10^6/M | deltaG [6]: -32.8 kcal/mol
